Measured values published in patent publication US20060040884A1, “Antisense oligonucleotides directed to genes regulated by trapoxin-induced HDAC inhibition” (priority 2001, published 2006).
Several values for one entry are separate records, joined by “and”; a condition that tells them apart may be missing. Equal values may be shown once. Marks after values point to notes of the source that are not given here. Square brackets hold non-standard residues; d marks the D form. Peptide text beside a SMILES is read from it. ξ: configuration not given here. Aoe(9ξ) = N[C@@H](CCCCCC(=O)C1CO1)C(=O)O; dPip = O=C(O)[C@H]1CCCCN1

System: H1299 cells
Assay: Microarray expression profiling of TPX- vs DMSO-treated H1299 cells (Affymetrix HU6800 and Incyte UniGem V arrays)
Assay type: cell-based, human
Conditions: 30 nM vs DMSO
Method: Cell Culture and Drug Treatments. […] H1299 cells at 60 to 80% confluence are treated with 30 nM TPX dissolved in dimethyl sulphoxide for a final concentration of 0.1% Me2SO in cell culture medium or 0.1% Me2SO for 0, 6, 12, and 18 h.
Incyte cDNA arrays. H1299 cells are treated with 30 nM TPX dissolved in Me2SO or Me2SO for 0, 6, 12 and 18 h. Final Me2SO concentrations were 0.1% in cell culture medium. Total RNA is extracted using TRIZOL reagent (Life Technologies, Rockville, Md.) and purified using RNAeasy reagents (Qiagen, Valencia Calif.). Poly (A)^+ RNA (mRNA) is prepared from total RNA using Oligotex columns (Qiagen, Valencia, Calif.) and the procedure is repeated twice to minimize contamination with ribosomal RNA. The mRNA concentrations are determined using RiboGreen RNA Quantitation kit (Molecular Probes, Eugene, Oreg.) and equal amounts of mRNA from each sample is used in labeling reactions that are performed by Synteni Division of Incyte Genomics, Inc. (Palo Alto, Calif.). Complementary DNAs are prepared by […] and labeled with Cy3-deoxyuridine triphosphate (Cy3) or Cy5-deoxyuridine triphosphate (Cy5) fluorescent nucleotides. cDNA samples from cells that are treated with Me2SO are labeled with Cy3 and the TPX-treated samples are labeled with Cy5. Replicates were labeled with reversed fluorescent labels to accommodate biases attributable to labeling. The Cy3 and Cy5 samples from each time point are combined and hybridized to UniGem […] arrays (Iyer, V. R., et al., (1999) Science 283, 83-87). This array contains cDNAs that represent approximately 7000 human genes.
Affymetrix oligonucleotide arrays. Total RNA and Poly (A)^+ RNA is isolated from TPX or Me2SO-treated H1299 cells essentially as it was for Incyte cDNA arrays. Total RNA is isolated from p21^waf1-10 cells that are grown in the presence or in the absence of tetracycline for 6, 12 and 48 h. 1st strand cDNA synthesis is performed using Superscript Choice System (Life Technologies) and a T7prFB-t30 primer, 5′-AAACGACGGCACA […]-t30-3′ (SEQ ID NO 1). Biotinylated complementary […] is made using the T7 Megascript system (Ambion, Austin, Tex.), substituting NTP labeling-mix containing biotinylated CTP and UTP. The labeled, purified cDNA is fragmented into <50 bp pieces at 95° C. in MgCl2 buffer to-increase the efficiency of hybridization to 20-mer oligos on the arrays. These labeled fragments are hybridized to HU6800 arrays (Affymetrix, Santa Clara, Calif.) as described previously (Lockhart, D. J., et al., (1996) Nat. Biotechnol. 14, 1675-1680; Alon, U. et al., (1999) Proc. Natl. Acad. Sci. U.S.A. 96, 6745-6750). This array represents approximately 7000 human genes. Briefly, samples are hybridized for 16 h at 45° C. with constant rotation at 60 rpm. The arrays are washed and stained using an Affymetrix fluidics station. The stain included streptavidin-phycoerythrin (10 μg/ml; Molecular Probes, Eugene, Oreg.) and biotinylated goat anti-streptavidin (3 μg/ml; Vector Laboratories, Burlingame, Calif.).
Imaging and Data Analysis. Affymetrix arrays are scanned with a HP argon-ion laser confocal microscope, with a 488 nm […] and detection at 570 nm. Affymetrix fold changes are calculated using GeneChip 3.3 software (Affymetrix). Incyte Pharmaceutical Inc. uses a laser confocal microscope to determine the fluorescence intensities from Incyte cDNA arrays. The fluorescent images (Cy3 and Cy5) from the Incyte cDNA arrays are normalized to total fluorescence from each channel for all genes for labeling efficiency differences and considered the normalized data is used for calculation of the gene expression ratios.

## O=C(CCCCC[C@@H]1NC(=O)[C@H]2CCCCN2C(=O)[C@H](Cc2ccccc2)NC(=O)[C@H](Cc2ccccc2)NC1=O)C1CO1 (stereo partly drawn) [TPX, Trapoxin A] (cyclo(FF[dPip][Aoe(9ξ)]))
6 h
  Fold change, AB011146 KIAA0574, similar to an RNA binding protein: NC (<2 fold change in expression level (NC))
  Fold change, AF012086 RAN-binding protein 2-like: NC (<2 fold change in expression level (NC))
  Fold change, AF052578 RAN [RNA processing]: NC (<2 fold change in expression level (NC))
  Fold change, AF052578 RAN [Small GTP-ases]: NC (<2 fold change in expression level (NC))
  Fold change, AF109161 p35srj [Stress]: NC (<2 fold change in expression level (NC))
  Fold change, AF109161 p35srj [Transformation and TKRs]: NC (<2 fold change in expression level (NC))
  Fold change, AL047358 Insulin-induced gene 1: 2.2 fold and 2.8 fold
  Fold change, AL047358 Spermidine/spermine N1-acetyltransferase: NC (<2 fold change in expression level (NC))
  Fold change, AL720570 Hepatoma-derived growth factor: NC (<2 fold change in expression level (NC))
  Fold change, D00596 Thymidylate synthetase: NC (<2 fold change in expression level (NC))
  Fold change, D16105 Leukocyte receptor tyrosine kinase: NC (<2 fold change in expression level (NC))
  Fold change, D50920 KIAA0130, thyroid receptor interacting protein: NC (<2 fold change in expression level (NC))
  Fold change, D85429 Hsp 40: 4.0^8 fold and 3.9^8 fold
  Fold change, J03909 γ-IFN-inducible, IP-30: 3.9^5 fold and 3.9^2 fold
  Fold change, L03840 Fibroblast growth factor receptor: 2.4* fold and 2.7* fold
  Fold change, L16991 Thymidylate kinase: NC (<2 fold change in expression level (NC))
  Fold change, L20010 Host cell factor: NC (<2 fold change in expression level (NC))
  Fold change, L32976 Mixed lineage kinase-3: NC (<2 fold change in expression level (NC))
  Fold change, M12174 RhoB: 6.2^5 fold and 9.0^8 fold
  Fold change, M55153 Transglutaminase 2: NC (<2 fold change in expression level (NC))
  Fold change, M58286 TNF Receptor: NC (<2 fold change in expression level (NC))
  Fold change, M59828 Hsp 70: 3.5 fold and 4.1 fold
  Fold change, M76125 Tyrosine kinase receptor (TKR) axl: NC (<2 fold change in expression level (NC))
  Fold change, M80244 Human E16: NC (<2 fold change in expression level (NC))
  Fold change, M80899 AHNAK nucleoprotein/desmoykin: NC (<2 fold change in expression level (NC))
  Fold change, M86406 Actinin: NC (<2 fold change in expression level (NC))
  Fold change, N33982 c-Yes-associated protein: NC (<2 fold change in expression level (NC))
  Fold change, NM006603 Stromal antigen 2: NC (<2 fold change in expression level (NC))
  Fold change, U03057 Actin-bundling protein: NC (<2 fold change in expression level (NC))
  Fold change, U09578 MAKAP kinase (3 pk): NC (<2 fold change in expression level (NC))
  Fold change, U09579 p21waf1 (1st line): 6.1* fold and 6.6* fold
  Fold change, U09579 p21waf1 (2nd line): 2.3 fold and 3.3 fold
  Fold change, U09937 Upa receptor (UpaR) (1st line): NC (<2 fold change in expression level (NC))
  Fold change, U14750 Connective tissue growth factor: 3.1 fold and 3.6 fold
  Fold change, U15782 Cleavage stimulation factor 3: NC (<2 fold change in expression level (NC))
  Fold change, U25804 Caspase-4: NC (<2 fold change in expression level (NC))
  Fold change, U28749 HMGI-C (2nd line): NC (<2 fold change in expression level (NC))
  Fold change, U28749 High mobility group phosphoprotein I-C (HMGI-C) (1st line): NC (<2 fold change in expression level (NC))
  Fold change, U32519 GAP SH3 binding protein: 5.7^8 fold and 5.8^8 fold
  Fold change, U35113 Metastasis-associated 1, MTA-1 [Metastasis and invasion]: NC (<2 fold change in expression level (NC))
  Fold change, U35113 Metastasis-associated protein 1 (MTA-1) [Chromatin remodeling]: NC (<2 fold change in expression level (NC))
  Fold change, U48795 Cathelicidin antimicrobial peptide: NC (<2 fold change in expression level (NC))
  Fold change, U56833 VBP-1: NC (<2 fold change in expression level (NC))
  Fold change, U77413 O-linked-N-acetylglucosamine transferase: NC (<2 fold change in expression level (NC))
  Fold change, U84214 Defender against cell death 1: NC (<2 fold change in expression level (NC))
  Fold change, X03473 Histone H1 (0) [Chromatin remodeling]: 6.8^4 fold and 10.8^8 fold
  Fold change, X03473 Histone H1 (0) [Differentiation]: 6.8^4 fold and 10.8^8 fold
  Fold change, X04429 Plasminogen activator inhibitor 1: NC (<2 fold change in expression level (NC))
  Fold change, X16396 NAD-dependent methylene teterahydrofolate dehydrogenase-methylenyltetrahydrofolate cyclohydrolase: NC (<2 fold change in expression level (NC))
  Fold change, X16665 Homeobox B2 (Hoxb2): NC (<2 fold change in expression level (NC))
  Fold change, X37546 Inhibitor of apoptisis homolog B: NC (<2 fold change in expression level (NC))
  Fold change, X53586 Integrin α-6: NC (<2 fold change in expression level (NC))
  Fold change, X55740 5′-nucleotidase: NC (<2 fold change in expression level (NC))
  Fold change, X59798 Cyclin D1: NC (<2 fold change in expression level (NC))
  Fold change, X66029 TKR axl: NC (<2 fold change in expression level (NC))
  Fold change, X71874 MECL-1: NC (<2 fold change in expression level (NC))
  Fold change, X78687 G9 sialidase: 3.0^8 fold and 3.4^8 fold
  Fold change, X89713 Death-associated protein-5: NC (<2 fold change in expression level (NC))
12 h
  Fold change, A1581499 Apoptosis inhibitor 2: NC (<2 fold change in expression level (NC))
  Fold change, AB011146 KIAA0574, similar to an RNA binding protein: 2.7 fold
  Fold change, AF012086 RAN-binding protein 2-like: 9.1 fold and 8.3 fold
  Fold change, AF052578 RAN [RNA processing]: NC (<2 fold change in expression level (NC))
  Fold change, AF052578 RAN [Small GTP-ases]: 2.9 fold and 2.0 fold
  Fold change, AF109161 p35srj [Stress]: 3.5 fold and 2.4 fold
  Fold change, AF109161 p35srj [Transformation and TKRs]: 3.5 fold and 2.4 fold
  Fold change, AL047358 Insulin-induced gene 1: 7.9 fold and 6.4 fold
  Fold change, AL047358 Spermidine/spermine N1-acetyltransferase: 3.8 fold and 2.3 fold
  Fold change, AL720570 Hepatoma-derived growth factor: NC (<2 fold change in expression level (NC))
  Fold change, AW072424 5′-nucleotidase: −3.7 fold
  Fold change, D00596 Thymidylate synthetase: NC (<2 fold change in expression level (NC))
  Fold change, D16105 Leukocyte receptor tyrosine kinase: NC (<2 fold change in expression level (NC))
  Fold change, D50920 KIAA0130, thyroid receptor interacting protein: NC (<2 fold change in expression level (NC))
